Where two headings read alike, the source gives them in different places. Blank lines part the entries; values can stand above or below the compound they belong to.
Experiments:
[1] = tested on: maximal electroshock seizure (generalized tonic-clonic seizures); assay: Maximal Electroshock Seizure; format: in vivo, mice; conditions: i.p.; for protection in the MES test in mice at 100 mg/kg (in words) / MES protection, animals protected/animals tested at 0.5 h: mice; for MES protection, animals protected/animals tested at 0.5 h: 100 mg/kg (stated for 19 and 20)
human Nav1.2 [2] = biological target: T1, human Nav1.2 (Homo sapiens, UniProt Q99250); format: cell-based
T1 sequence (Q99250 whole entry): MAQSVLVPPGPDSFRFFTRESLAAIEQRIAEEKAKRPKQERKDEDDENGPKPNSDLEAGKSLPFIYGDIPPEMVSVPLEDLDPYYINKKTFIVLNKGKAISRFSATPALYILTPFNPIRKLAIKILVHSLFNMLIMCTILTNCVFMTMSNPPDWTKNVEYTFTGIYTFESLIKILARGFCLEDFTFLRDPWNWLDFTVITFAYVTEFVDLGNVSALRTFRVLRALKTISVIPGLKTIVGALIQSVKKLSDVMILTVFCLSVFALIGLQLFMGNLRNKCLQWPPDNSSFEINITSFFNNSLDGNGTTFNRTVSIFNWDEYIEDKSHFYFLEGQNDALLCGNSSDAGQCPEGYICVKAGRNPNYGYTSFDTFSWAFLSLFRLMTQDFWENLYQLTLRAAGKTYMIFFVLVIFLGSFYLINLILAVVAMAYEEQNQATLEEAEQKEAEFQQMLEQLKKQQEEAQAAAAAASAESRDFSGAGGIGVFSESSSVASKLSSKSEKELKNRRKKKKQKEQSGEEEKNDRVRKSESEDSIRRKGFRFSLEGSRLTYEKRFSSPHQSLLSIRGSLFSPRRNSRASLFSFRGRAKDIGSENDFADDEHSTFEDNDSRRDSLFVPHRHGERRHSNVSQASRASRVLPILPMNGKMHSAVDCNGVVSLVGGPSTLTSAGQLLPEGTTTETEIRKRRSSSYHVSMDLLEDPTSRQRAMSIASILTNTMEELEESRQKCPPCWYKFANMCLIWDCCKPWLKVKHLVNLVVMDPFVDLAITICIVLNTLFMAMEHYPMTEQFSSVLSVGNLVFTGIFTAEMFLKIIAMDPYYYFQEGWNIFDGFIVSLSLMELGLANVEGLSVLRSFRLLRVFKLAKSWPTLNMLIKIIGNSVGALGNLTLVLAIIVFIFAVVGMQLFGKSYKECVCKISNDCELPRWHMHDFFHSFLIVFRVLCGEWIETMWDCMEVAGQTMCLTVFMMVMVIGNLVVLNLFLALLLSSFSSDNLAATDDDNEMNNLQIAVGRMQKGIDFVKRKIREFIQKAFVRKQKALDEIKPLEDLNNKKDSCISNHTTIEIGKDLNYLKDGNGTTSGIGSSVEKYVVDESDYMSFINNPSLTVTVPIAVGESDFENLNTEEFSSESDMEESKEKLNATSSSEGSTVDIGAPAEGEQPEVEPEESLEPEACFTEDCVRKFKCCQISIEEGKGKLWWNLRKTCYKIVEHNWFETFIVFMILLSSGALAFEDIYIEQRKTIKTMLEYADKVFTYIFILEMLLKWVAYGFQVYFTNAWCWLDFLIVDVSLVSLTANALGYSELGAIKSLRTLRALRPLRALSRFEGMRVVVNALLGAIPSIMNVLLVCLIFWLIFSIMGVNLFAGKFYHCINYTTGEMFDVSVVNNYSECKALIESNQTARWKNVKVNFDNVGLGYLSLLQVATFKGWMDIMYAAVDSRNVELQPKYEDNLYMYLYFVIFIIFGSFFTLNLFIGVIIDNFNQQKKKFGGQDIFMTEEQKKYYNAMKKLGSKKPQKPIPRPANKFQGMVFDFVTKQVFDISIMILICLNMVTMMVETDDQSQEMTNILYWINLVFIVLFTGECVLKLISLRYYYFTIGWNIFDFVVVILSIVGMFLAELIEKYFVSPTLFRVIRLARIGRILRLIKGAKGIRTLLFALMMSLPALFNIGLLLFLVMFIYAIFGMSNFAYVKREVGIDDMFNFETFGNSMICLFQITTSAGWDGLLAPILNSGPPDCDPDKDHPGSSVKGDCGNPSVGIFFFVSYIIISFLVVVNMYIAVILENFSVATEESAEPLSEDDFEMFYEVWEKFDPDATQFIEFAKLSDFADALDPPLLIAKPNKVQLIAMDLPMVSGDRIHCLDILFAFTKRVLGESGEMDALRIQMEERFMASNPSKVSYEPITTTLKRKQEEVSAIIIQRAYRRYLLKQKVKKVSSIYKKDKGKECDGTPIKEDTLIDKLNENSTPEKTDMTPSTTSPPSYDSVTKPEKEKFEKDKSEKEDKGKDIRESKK

mice = assay: Acute toxicity, minimal motor impairment; format: in vivo; conditions: i.p.
[3] = tested on: maximal electroshock seizure (generalized tonic-clonic seizures); assay: MES test, oral administration to rats; format: in vivo; conditions: 30 mg/kg
human Nav1.2 [4] = biological target: T1, human Nav1.2; conditions: cited from earlier work

Structure (SMILES): Clc1cccc(-c2nc(-c3ccccc3)c[nH]2)c1 [Compound 12]
protection in the MES test in mice at 100 mg/kg (in words) [1]: Some protection

action on hNaV1.2 current at 10 μM (human Nav1.2 [2]): 30.1%
Structure (SMILES): COc1ccc(-c2nc(-c3ccccc3)c[nH]2)cc1 [Compound 13]

Structure (SMILES): O=[N+]([O-])c1ccc(-c2nc(-c3ccccc3)c[nH]2)cc1 [Compound 15]
protection in the MES test in mice at 100 mg/kg (in words) [1]: Some protection

Structure (SMILES): O=[N+]([O-])c1cccc(-c2nc(-c3ccccc3)c[nH]2)c1 [Compound 16]
MES protection, animals protected/animals tested at 0.5 h [1]: 2/3

Structure (SMILES): FC(F)(F)c1ccc(-c2nc(-c3ccccc3)c[nH]2)cc1 [Compound 17]
MES protection, animals protected/animals tested at 0.25 h ([1]; 0.25 h, text says rats, Supplementary Data Table 1): 2/3 | dose up to which no toxicity was observed (mice): 500 mg/kg | action on hNaV1.2 current at 10 μM (human Nav1.2 [2]): 22.7% | fold greater potency for hNav1.2 than phenytoin (human Nav1.2 [2]; ratio of IC50 values): 4 fold

Structure (SMILES): Clc1ccc(-c2c[nH]c(-c3ccccc3)n2)cc1 [Compound 19]
MES protection, animals protected/animals tested at 0.5 h [1]: 3/3 | ability to prevent seizure spread in the MES test after oral administration (in words) [3]: not able to prevent seizure spread

Structure (SMILES): Clc1cccc(-c2c[nH]c(-c3ccccc3)n2)c1 [Compound 20]
MES protection, animals protected/animals tested at 0.5 h [1]: 3/3 | dose up to which no toxicity was observed (mice): 500 mg/kg | action on hNaV1.2 current at 10 μM (human Nav1.2 [2]): 16.8%

Structure (SMILES): COc1ccc(-c2c[nH]c(-c3ccccc3)n2)cc1 [Compound 21]
ability to prevent seizure spread in the MES test after oral administration (in words) [3]: not able to prevent seizure spread

Structure (SMILES): COc1cccc(-c2c[nH]c(-c3ccccc3)n2)c1 [Compound 22]
ability to prevent seizure spread in the MES test after oral administration (in words) [3]: not able to prevent seizure spread

Structure (SMILES): O=[N+]([O-])c1ccc(-c2c[nH]c(-c3ccccc3)n2)cc1 [Compound 23]
protection in the MES test in mice at 100 mg/kg (in words) [1]: Some protection

Structure (SMILES): O=[N+]([O-])c1cccc(-c2c[nH]c(-c3ccccc3)n2)c1 [Compound 24]
MES protection, animals protected/animals tested at 0.5 h [1]: 2/3 | ability to prevent seizure spread in the MES test after oral administration (in words) [3]: not able to prevent seizure spread

Structure (SMILES): FC(F)(F)c1ccc(-c2c[nH]c(-c3ccccc3)n2)cc1 [Compound 25]
protection in the MES test in mice at 100 mg/kg (in words) [1]: Some protection

Structure (SMILES): FC(F)(F)c1cccc(-c2c[nH]c(-c3ccccc3)n2)c1 [Compound 26]
protection in the MES test in mice at 100 mg/kg (in words) [1]: Some protection

Structure (SMILES): FC(F)(F)c1cccc(-c2c[nH]c(-c3cccc(C(F)(F)F)c3)n2)c1 [Compound 29]
protection in the MES test in mice at 100 mg/kg (in words) [1]: Some protection

Structure (SMILES): O=C1NC(=O)C(c2ccccc2)(c2ccccc2)N1 [Phenytoin]
action on hNaV1.2 current at 10 μM (human Nav1.2 [4]): 10.6%

From PMC2970651 (Bioorganic & medicinal chemistry, 2010)
